These results are taken from patent US4613603A, “Compounds with a nitrogen-containing heterocyclic nucleus, and drugs in which they are present” (Sanofi, priority 1984, dated 1986).

Counter-ions that a name gives are not always drawn. Like-named read-outs stand apart in the source and are kept apart here.

A short description of data set [1]: Determination of the lethal dose in mice after acute administration. The conditions noted are these: mouse, in vivo, po, administered orally, read-out: Percent toxicity (percentage of animals which die within 72 hours). The protocol:
The products were administered orally to groups of 5 female CDI Charles River mice weighing between 20 and 24 g. They were solubilized in 0.1N HCl. The toxicity was recorded for 72 hours following the administration of the products.
The results, expressed as the percentage of animals which die within 72 hours following oral administration of the products, are given in the table above.

For data set [2], the system named is contortional movements caused by the administration of acetic acid. The data set can be described thus: Analgesic activity, KOSTER test (acetic acid contortions). Format: in vivo. The conditions noted are these: mice, 25 mg/kg administered orally 30 minutes before i.p. acetic acid. The protocol: The analgesic activity of the products according to the invention was evaluated using the KOSTER test (Federation Proceeding 18, 41 (1959)).
The products were administered orally to mice 30 minutes before the intraperitoneal injection of 0.25 ml of 0.1N acetic acid dissolved in 10% gum arabic. The contortions between the fifth and tenth minute and between the fifteenth and twentieth minute after administration of the acid were counted for the control animals and the treated animals.

The subject of a further data set is bicuculline. The data set is described as follows: Antagonism towards the convulsions and the mortality caused by bicuculline. The conditions noted are these: Mus musculus, po, 1 h. Format: in vivo, mice. The protocol: (§1) The anticonvulsant effect of the products on mice was evaluated on a model involving convulsions caused by an electric shock and on a model involving convulsions induced by a chemical agent: bicuculline.
The groups consisted of 10 CDI Charles River mice weighing between 20 and 22 g. The products were administered orally 60 minutes before the bicuculline (0.8 mg/kg, administered intravenously).

Data set [3] relates to convulsions induced by an electric shock. The data set is described as follows: Antagonism towards the convulsions induced by an electric shock. Format: in vivo. Particulars: Mus musculus, po, 1 h; mice, administered orally 60 minutes before the electric shock; confidence limits in brackets (p ≤ 0.05); read-out: Median effective dose (ED50) for antagonism towards electric shock. The protocol: as §1
The test was a slightly modified version of that of SWINYARD et al. [Journal of Pharmacology and Experimental Therapeutics 106, 319-330 (1952)] and ASAMI et al. [Arzneimittel Forschung 24(10), 1563-1568 (1974)]. The equipment consisted of a Racia shock generator fitted with 2 ocular electrodes delivering a current at 12.5 volts for 0.3 second. The groups consisted of 10 CDI Charles River mice weighing between 20 and 24 g.
The products were administered orally 60 minutes before the electric shock.

Data set [4] concerns mortality following the injection of collagen. The data set is described as follows: Antithrombotic activity, mortality following the injection of collagen. Format: in vivo. The conditions noted are these: mice, 200 mg/kg, administered orally.
Where [5] appears, read: read-out: Median effective dose (ED50) for antagonism towards bicuculline, Mortality.
[6] abbreviates: read-out: Median effective dose (ED50) for antagonism towards bicuculline, Tonic convulsions.

With `OC1CCN(c2ccc(-c3ccccc3Cl)cn2)CC1` [SR 42 482, 5-(2-Chlorophenyl)-2-(4-hydroxypiperidino)-pyridine acid maleate], the mortality at 72 h in data set [1] (250 mg/kg), in data set [1] (500 mg/kg) and in data set [1] (1000 mg/kg) was 0% throughout. Besides, in data set [2], the “Antagonism towards the contortional movements (percent/control animals)” value was -50%.
The ED50 is the dose that gives a 50% effect, or the effect in half of the subjects. As for `OC1CCN(c2ncc(-c3ccccc3Cl)cn2)CC1` [SR 42 505, 5-(2-Chlorophenyl)-2-(4-hydroxypiperidino)pyrimidine], the ED50 stood at 54 mg/kg in the data set with bicuculline (setting [5]), 52 mg/kg with bicuculline (setting [6]) and 42 mg/kg in data set [3]. Besides, the mortality at 72 h in data set [1] (250 mg/kg) was 0%; in data set [1] (500 mg/kg), 0%; in data set [1] (1000 mg/kg), 80%. The “Antagonism towards the contortional movements (percent/control animals)” value in data set [2] is listed as -36%.
`OC1CCN(c2ncc(-c3ccccc3Cl)nn2)CC1` [SR 42 524, 6-(2-Chlorophenyl)-3-(4-hydroxypiperidino)-1,2,4-triazine]: the ED50 in the data set with bicuculline (setting [5]) was 72 mg/kg; in the data set with bicuculline (setting [6]) it was 71 mg/kg; in data set [3] it was 24 mg/kg. Besides, in data set [4], the “Protection from mortality following the injection of collagen” value was “protected mice from mortality following the injection of collagen”. Further, the mortality at 72 h in data set [1] (250 mg/kg), in data set [1] (500 mg/kg) and in data set [1] (1000 mg/kg) was 0% in each case.
Regarding `O=C1CCN(c2ncc(-c3ccccc3Cl)nn2)CC1` [SR 42 642, 6-(2-Chlorophenyl)-3-(4-oxopiperidino)-1,2,4-triazine], the 50% effective dose (ED50) in data set [3] was found to be 40 mg/kg. Also, the mortality at 72 h in data set [1] (250 mg/kg) and in data set [1] (500 mg/kg) was 0% in each case.
`O=C1CCN(c2ccc(-c3ccccc3Cl)cn2)CC1` [SR 42 696, 5-(2-Chlorophenyl)-2-(4-oxopiperidino)pyridine acid maleate]: the mortality at 72 h in data set [1] (250 mg/kg) and in data set [1] (500 mg/kg) was 0% throughout.
On to `OC1CCN(c2ncc(-c3ccc(Cl)cc3Cl)cn2)CC1` [SR 42 824, 5-(2,4-dichlorophenyl)-2-(4-hydroxypiperidino)pyrimidine], for which the ED50 worked out at 8 mg/kg in the data set on bicuculline (setting [5]), 9.4 mg/kg in the data set with bicuculline (setting [6]) and 20 mg/kg in data set [3]. For the same compound, the mortality at 72 h in data set [1] (250 mg/kg) and in data set [1] (500 mg/kg) was 0% in each case. Besides, in data set [2], the “Antagonism towards the contortional movements (percent/control animals)” value is on record as -80%.
`OC1CCN(c2ncc(-c3ccc(Cl)cc3Cl)nn2)CC1` [SR 42 825, 6-(2,4-Dichlorophenyl)-3-(4-hydroxypiperidino)-1,2,4-triazine]: the ED50 in the data set on bicuculline (setting [5]) came to 3.3 mg/kg; in the data set on bicuculline (setting [6]) it was 3.1 mg/kg; in data set [3], 16 mg/kg. Also, the mortality at 72 h in data set [1] (250 mg/kg) came out at 20%; in data set [1] (500 mg/kg) it was 20%; in data set [1] (1000 mg/kg), 80%. Moreover, the “Antagonism towards the contortional movements (percent/control animals)” value in data set [2] is reported as -57%.
As for `O=C1CCN(c2ncc(-c3ccc(Cl)cc3Cl)nn2)CC1` [SR 42 826, 6-(2,4-Dichlorophenyl)-3-(4-oxopiperidino)-1,2,4-triazine], the results for the ED50 (in the data set with bicuculline (setting [5]); with bicuculline (setting [6]); in data set [3]) were 3.4 mg/kg, 3.2 mg/kg and 26 mg/kg, respectively. The mortality at 72 h in data set [1] (250 mg/kg) worked out at 0%; in data set [1] (500 mg/kg) it was 20%. The “Antagonism towards the contortional movements (percent/control animals)” value in data set [2] is on record as -42%.
For `OC1CCN(c2cnc(-c3ccc(Cl)cc3)nn2)CC1` [SR 42 833, 3-(4-Chlorophenyl)-6-(4-hydroxypiperidino)-1,2,4-triazine], the mortality at 72 h in data set [1] (250 mg/kg) and in data set [1] (500 mg/kg) was 0% each time. In data set [2], the “Antagonism towards the contortional movements (percent/control animals)” value is recorded as -31%.
As for `OC1CCN(c2ccc(-c3ccc(Cl)cc3Cl)cn2)CC1` [SR 42 903, 5-(2,4-Dichlorophenyl)-2-(4-hydroxypiperidino)pyridine], the median effective dose (ED50) in data set [3] was found to be 28 mg/kg.
In the case of `OC1CCN(c2cnc(-c3cccc(Cl)c3)nn2)CC1` [SR 42 904, 3-(3-Chlorophenyl)-6-(4-hydroxypiperidino)-1,2,4-triazine], the 50% effective dose (ED50) in data set [3] is 59 mg/kg. Also, the mortality at 72 h in data set [1] (250 mg/kg) and in data set [1] (500 mg/kg) was 0% in each case.
Turning to `OC1CCN(c2ncc(-c3ccc(Cl)cc3)cn2)CC1` [SR 42 921, 5-(4-chlorophenyl)-2-(4-hydroxypiperidino)pyrimidine], the mortality at 72 h in data set [1] (250 mg/kg) and in data set [1] (500 mg/kg) was 0% in each case.
As to `OC1CCN(c2ncc(-c3cccc(Cl)c3)cn2)CC1` [SR 42 922, 5-(3-chlorophenyl)-2-(4-hydroxypiperidino)pyrimidine], the mortality at 72 h in data set [1] (250 mg/kg), in data set [1] (500 mg/kg) and in data set [1] (1000 mg/kg) was 0% in each case.
For the compound `OC1CCN(c2ncc(-c3cccc4ccccc34)cn2)CC1` [SR 43 139, 5-(naphthyl-1)-2-(4-hydroxypiperidino)pyrimidine], the ED50 with bicuculline (setting [5]) was 44 mg/kg; in the data set on bicuculline (setting [6]), 46 mg/kg; in data set [3], 43 mg/kg. The mortality at 72 h in data set [1] (250 mg/kg), in data set [1] (500 mg/kg) and in data set [1] (1000 mg/kg) was 0% in each case.
On to `COc1ccc(-c2cnc(N3CCC(O)CC3)nc2)cc1` [SR 43 159, 5-(4-methoxyphenyl)-2-(4-hydroxypiperidino)pyrimidine], for which the 50% effective dose (ED50) in the data set with bicuculline (setting [5]) stood at 60 mg/kg; with bicuculline (setting [6]), 70 mg/kg; in data set [3], 83 mg/kg. Besides, the mortality at 72 h in data set [1] (250 mg/kg), in data set [1] (500 mg/kg) and in data set [1] (1000 mg/kg) was 0% throughout.
In the case of `O=C(OC1CCN(c2ncc(-c3ccccc3Cl)cn2)CC1)N1CCC(O)CC1` [SR 43 516, 2-[4-(4-hydroxypiperidinocarbonyloxy)piperidino]-5-(2-chlorophenyl)pyrimidine], the ED50 in data set [3] is 91 mg/kg. In addition, the mortality at 72 h in data set [1] (250 mg/kg), in data set [1] (500 mg/kg) and in data set [1] (1000 mg/kg) was 0% throughout.
As for `CN(C)C(=O)OC1CCN(c2ncc(-c3ccccc3Cl)cn2)CC1` [SR 43 537, 2-(4-dimethylcarbamoyloxypiperidino)-5-(2-chlorophenyl)pyrimidine], the figures for the 50% effective dose (ED50) (with bicuculline (setting [5]); in the data set on bicuculline (setting [6]); in data set [3]) were 3 mg/kg, 3.3 mg/kg and 2.5 mg/kg, respectively.
In the same order, the values of `CN(C)C(=O)OC1CCN(c2ncc(-c3ccc(Cl)cc3Cl)cn2)CC1` [SR 43 539, 2-(4-Dimethylcarbamoyloxypiperidino)-5-(2,4-dichlorophenyl)pyrimidine] are 0.7 mg/kg, 1.1 mg/kg and 2.5 mg/kg.
In the case of `CNC(=O)OC1CCN(c2ncc(-c3ccccc3Cl)cn2)CC1` [SR 43 543, 2-(4-Methylcarbamoyloxypiperidino)-5-(2-chlorophenyl)pyrimidine], the ED50 with bicuculline (setting [5]) stood at 3.9 mg/kg; in the data set with bicuculline (setting [6]), 4.3 mg/kg; in data set [3], 19 mg/kg. For the same compound, the mortality at 72 h turned out to be 0% in data set [1] (250 mg/kg), 0% in data set [1] (500 mg/kg) and 20% in data set [1] (1000 mg/kg).
As for `CC(=O)OC1CCN(c2ncc(-c3ccc(Cl)cc3Cl)cn2)CC1` [SR 43 651, 2-(4-Acetoxypiperidino)-5-(2,4-dichlorophenyl)pyrimidine], the ED50 turned out to be 15.5 mg/kg in the data set on bicuculline (setting [5]), 17.2 mg/kg in the data set on bicuculline (setting [6]) and 43 mg/kg in data set [3].
